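Tested at 5 concentrations; 48 h exposure; 96-well plates; endpoints linearly interpolated, else capped at highest concentration. GI50: concentration for 50% inhibition of growth.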 Active and inactive are the calls of the source. Rule as the data show it: active = GI50 up to about 1.1 µM and inactive = higher.
Assays:
Test in all cases: growth of human tumour cells (NCI), 48 h
[1] = tested on: U-251
[2] = tested on: SF-539
[3] = tested on: OVCAR-8
[4] = tested on: SW-620
[5] = tested on: LXFL 529
[6] = tested on: SN12C
[7] = tested on: UACC-62
[8] = tested on: SNB-19
[9] = tested on: DU-145
[10] = tested on: KM12
[11] = tested on: SK-MEL-5
[12] = tested on: EKVX
[13] = tested on: SNB-75
[14] = tested on: UO-31
[15] = tested on: CCRF-CEM
[16] = tested on: ACHN
[17] = tested on: OVCAR-3
[18] = tested on: HOP-62
[19] = tested on: MDA-MB-435
[20] = tested on: MDA-MB-231

Measured: GI50

C=C(CN(C)C)C(=O)c1ccc(C(=O)C(=C)CN(C)C)cc1
inactive: [1] > 100 µM | [2] > 100 µM | [3] > 100 µM | [4] > 100 µM | [5] > 100 µM | [6] > 100 µM | [7] > 100 µM | [8] > 100 µM | [9] > 100 µM | [10] > 100 µM | [11] > 100 µM | [12] > 100 µM | [13] > 100 µM | [14] > 100 µM | [15] > 100 µM | [16] > 100 µM | [17] > 100 µM

O=C(c1ccccc1)N1CCc2c([nH]c3ccccc23)C1
inactive: [1] 16.4 µM | [2] 76.9 µM | [3] 29.5 µM | [4] 37.5 µM | [5] 36.4 µM | [6] 34 µM | [7] 51.4 µM | [18] 91.2 µM | [8] 59.7 µM | [10] 48.8 µM | [11] 20.9 µM | [12] 44.6 µM | [13] 66.8 µM | [14] 22.5 µM | [15] 44.6 µM | [16] 36.9 µM | [17] 38 µM

COc1cc(/C=C2\NC(=O)C(Cc3cc(OC)c(OC)c(C)c3OC)N(C(C)=O)C2=O)c(OC)c(C)c1OC (stereo not given)
inactive: [1] > 100 µM | [2] > 100 µM | [3] 72.8 µM | [4] > 100 µM | [5] 72.8 µM | [6] > 100 µM | [7] > 100 µM | [18] > 100 µM | [8] > 100 µM | [10] 94.6 µM | [11] 42.9 µM | [12] 43.7 µM | [13] > 100 µM | [14] 85.1 µM | [15] 45.2 µM | [16] > 100 µM | [17] > 100 µM

CC1(C)CC2CC(CC(C)(C)C2=O)C1=O
inactive: [1] > 100 µM | [2] > 100 µM | [3] > 100 µM | [4] > 100 µM | [5] > 100 µM | [6] > 100 µM | [7] > 100 µM | [18] > 100 µM | [8] > 100 µM | [10] > 100 µM | [11] > 100 µM | [12] > 100 µM | [13] > 100 µM | [14] > 100 µM | [15] > 100 µM | [16] > 100 µM | [17] > 100 µM

CC1(C)OC(=S)N(c2ccccc2)C12C=Cc1cc3ccccc3nc1S2 (stereo not given)
inactive: [1] > 100 µM | [2] > 100 µM | [3] > 100 µM | [4] > 100 µM | [5] 44 µM | [6] > 100 µM | [7] > 100 µM | [18] > 100 µM | [8] > 100 µM | [10] > 100 µM | [11] 56.9 µM | [12] > 100 µM | [13] 97.1 µM | [14] 73.5 µM | [15] 29.9 µM | [16] > 100 µM | [17] > 100 µM

COC(=O)C1CC(C(=O)OC)c2nc3cc([N+](=O)[O-])ccc3nc21 (stereo not given)
inactive: [1] 98.2 µM | [2] 41 µM | [3] > 90.4 µM | [4] 89.9 µM | [5] 36.9 µM | [6] > 79.3 µM | [7] 22.6 µM | [18] > 52.8 µM | [8] > 67.9 µM | [10] 23.1 µM | [11] 58.7 µM | [12] > 81.3 µM | [13] > 61 µM | [14] 33.7 µM | [15] 9.53 µM | [16] 45.9 µM | [17] 33.1 µM

Cc1ccc(-c2nnc(-c3nn(-c4ccccc4)c4nc5ccccc5nc34)o2)cc1
inactive: [1] 11.8 µM | [2] 3.03 µM | [3] 10.9 µM | [4] 35.6 µM | [5] 10.6 µM | [6] 22.4 µM | [7] 14.2 µM | [18] 13.5 µM | [8] 21.5 µM | [10] 17.8 µM | [11] 10.9 µM | [12] 29.9 µM | [13] 4.1 µM | [14] 20.4 µM | [15] 3.59 µM | [16] 14.4 µM | [17] 14.1 µM

Cc1cc(=O)c2c(O)cc3c(c2o1)CC=C(COC1OC(COC2OC(CO)C(O)C(O)C2O)C(O)C(O)C1O)CO3 (stereo not given)
inactive: [1] > 100 µM | [2] > 100 µM | [3] > 100 µM | [4] > 100 µM | [5] > 100 µM | [6] > 100 µM | [7] > 100 µM | [18] > 100 µM | [8] > 100 µM | [10] > 100 µM | [11] > 100 µM | [12] > 100 µM | [13] > 100 µM | [14] > 100 µM | [15] > 100 µM | [16] > 100 µM | [17] > 100 µM

CC(=O)Oc1cc2c(=O)oc3c(OC(C)=O)c(OC(C)=O)c(OC(C)=O)c4c(=O)oc(c1OC(C)=O)c2c34
inactive: [1] 36.6 µM | [2] 24.8 µM | [3] 56.6 µM | [4] 34.5 µM | [5] > 100 µM | [6] 29 µM | [7] 33.2 µM | [18] > 100 µM | [8] 73.8 µM | [10] > 100 µM | [11] 61.1 µM | [12] 74 µM | [13] 45.9 µM | [14] 97.7 µM | [15] 19.2 µM | [16] 48.3 µM | [17] > 100 µM

Cn1cnc([N+](=O)[O-])c1SC1=NCCS1
inactive: [1] > 100 µM | [2] > 100 µM | [3] > 100 µM | [4] 47.6 µM | [5] 27 µM | [6] > 100 µM | [7] 51.2 µM | [18] > 100 µM | [8] > 100 µM | [10] > 100 µM | [11] > 100 µM | [12] > 100 µM | [13] > 100 µM | [14] 74.6 µM | [15] 28.2 µM | [16] 91 µM | [17] > 100 µM

CCn1c2c(n(CC)c1=S)-c1c(n(CC)c(=S)n1CC)SSSS2
inactive: [1] 22.2 µM | [2] 12.2 µM | [3] 8.77 µM | [4] 1.67 µM | [5] 2.1 µM | [6] 11.2 µM | [7] 10.7 µM | [18] > 100 µM | [19] 13.3 µM | [8] > 84.1 µM | [9] > 100 µM | [10] 19.2 µM | [11] 27 µM | [20] 2.18 µM | [12] 14.5 µM | [13] 1.91 µM | [14] 12.7 µM | [15] 1.24 µM | [16] 5.02 µM | [17] 7.23 µM
